Key:
canine T2R2 = target: T1, canine T2R2 (Canis lupus, UniProt Q2ABD9); test: Canine T2R2 activation, intracellular calcium assay in transiently transfected HEK293 cells, dose response (FIG. 4E); assay type: cell-based; settings: agonist; HEK293 transient, cT2R2 (SEQ ID NO:18); calcium fluorescence or luminescence, FLIPR Tetra; at least 8 concentrations in triplicate
T1 sequence (Q2ABD9 1-303): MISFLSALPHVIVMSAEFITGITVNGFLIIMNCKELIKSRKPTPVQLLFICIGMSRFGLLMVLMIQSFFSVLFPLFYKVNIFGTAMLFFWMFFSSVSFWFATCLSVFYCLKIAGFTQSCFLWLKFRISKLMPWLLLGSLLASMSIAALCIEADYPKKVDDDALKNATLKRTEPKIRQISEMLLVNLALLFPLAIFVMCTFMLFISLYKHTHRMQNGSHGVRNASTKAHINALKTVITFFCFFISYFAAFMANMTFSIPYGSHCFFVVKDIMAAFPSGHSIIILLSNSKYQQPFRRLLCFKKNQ
Excerpt: Residues that can potentially make hydrogen bond or salt bridge interactions with the ligand include Ser94, Trp90, Lys268, Tyr245, and Glu180.
(§1) No wash step was required for the luminescent protocol.

canine T2R43 = canine T2R43 (Canis lupus, UniProt A0A8I3S925); test: cell-based
Description: In vitro functional characterization of the selected modulators was used to evaluate the effectiveness of the putative modulator compounds in modulating the activation of the bitter taste receptors.
HEK293 cells that transiently expressed a canine bitter taste receptor selected from canine T2R1, T2R2, T2R3, T2R4, T2R5, T2R10, and T2R43, were exposed to compounds to determine whether the compounds modulated the activity of the bitter taste receptors.
All transient transfections were performed with Lipofectamine2000 (Invitrogen) according to the manufactures protocol. 10 μl Lipofectamine2000 were diluted in 500 μl DMEM (Life Technologies) and incubated for 5 minutes at room temperature. […] At 27 to 30 hours post-transfection the medium was removed from the cells and 20 μl loading buffer that included a calcium sensitive fluorescent dye or luminescent substrate (Tyrode's buffer+2 μM Fluo4-AM (Invitrogen)+2.5 mM probenecid (Invitrogen) for fluorescence or Coelenterazine (Biosynth)+Tyrode's buffer for luminescence) were added for 1 hour (fluorescence) or 3 hours (luminescence) at 37° C. […]
Activation of the bitter taste receptor was determined by detecting a change in intracellular calcium levels as measured by fluorescence or luminescence of the calcium sensitive fluorescent dye or luminescent photoprotein. […] A FLIPR® Tetra system was used to measure fluorescence or luminescence. […]

canine T2R10 = target: T2, canine T2R10 (Canis lupus, UniProt Q2ABD4); test: Canine T2R10 activation, intracellular calcium assay in transiently transfected HEK293 cells, dose response (FIG. 8E); assay type: cell-based; settings: agonist; HEK293 transient, cT2R10 (SEQ ID NO:23); calcium fluorescence or luminescence, FLIPR Tetra; at least 8 concentrations in triplicate
T2 sequence (Q2ABD4 1-322): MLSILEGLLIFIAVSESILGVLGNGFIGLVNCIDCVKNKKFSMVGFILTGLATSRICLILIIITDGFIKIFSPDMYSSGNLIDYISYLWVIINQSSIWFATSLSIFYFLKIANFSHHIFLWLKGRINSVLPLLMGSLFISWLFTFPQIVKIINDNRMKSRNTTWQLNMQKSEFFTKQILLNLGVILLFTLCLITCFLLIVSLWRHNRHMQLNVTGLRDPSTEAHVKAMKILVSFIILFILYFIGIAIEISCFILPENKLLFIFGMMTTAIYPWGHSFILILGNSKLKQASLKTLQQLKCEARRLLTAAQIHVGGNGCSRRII
Excerpt: Lys258 and Leu180 (backbone) can potentially make hydrogen bonds with the ligand.
as §1

canine T2R5 = target: T3, canine T2R5 (Canis lupus, UniProt Q2ABD6); test: Canine T2R5 activation, intracellular calcium assay in transiently transfected HEK293 cells, dose response (FIG. 7E); assay type: cell-based
T3 sequence (Q2ABD6 1-295): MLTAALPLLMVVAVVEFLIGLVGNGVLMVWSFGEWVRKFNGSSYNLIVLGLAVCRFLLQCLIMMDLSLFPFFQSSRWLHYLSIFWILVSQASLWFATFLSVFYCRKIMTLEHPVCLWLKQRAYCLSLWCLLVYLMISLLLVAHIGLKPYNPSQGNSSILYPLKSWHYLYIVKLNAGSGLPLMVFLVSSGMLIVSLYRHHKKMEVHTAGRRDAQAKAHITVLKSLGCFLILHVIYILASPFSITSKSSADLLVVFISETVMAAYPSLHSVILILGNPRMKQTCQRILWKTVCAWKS
Excerpt: There is a potential hydrogen bond between Ser89 and each nitrogen of 1, 10 Phenanthroline. Additional residues that can potentially make van der Waals or Pi interactions with the ligand include Pro264, Leu58, Val88, Gln90, Ile86, Leu173, Trp165, Thr258, Ala261, Tyr234, Glu257, Met260, and Trp85.
as §1

canine T2R3 = target: T4, canine T2R3 (Canis lupus, UniProt Q2ABD8); test: Canine T2R3 activation, intracellular calcium assay in transiently transfected HEK293 cells, dose response (FIG. 5E); assay type: cell-based; settings: agonist; HEK293 transient, cT2R3 (SEQ ID NO:19); calcium fluorescence or luminescence, FLIPR Tetra; at least 8 concentrations in triplicate
T4 sequence (Q2ABD8 1-316): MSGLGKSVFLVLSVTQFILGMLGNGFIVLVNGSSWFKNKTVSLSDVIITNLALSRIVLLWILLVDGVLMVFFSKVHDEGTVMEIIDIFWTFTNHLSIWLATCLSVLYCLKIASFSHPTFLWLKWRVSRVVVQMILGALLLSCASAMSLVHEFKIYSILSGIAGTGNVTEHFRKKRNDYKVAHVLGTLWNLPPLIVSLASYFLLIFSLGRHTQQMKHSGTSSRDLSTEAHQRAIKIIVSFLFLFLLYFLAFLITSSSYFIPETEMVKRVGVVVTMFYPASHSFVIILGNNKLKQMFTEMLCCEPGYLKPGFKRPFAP
Excerpt: Residues that can make hydrogen bonding or charged interactions with the ligand include Asn93 and Asp86. […] Additional residues making primarily van der Waals interactions with the ligand include Phe250, Gly185, Phe243, Thr90, Asn176, Val149, Ile154, Lys174, Met82, Ile85, Lys173, and Met69.
as §1

canine T2R1 = target: T5, canine T2R1 (Canis lupus, UniProt Q2ABE0); test: Canine T2R1 activation, intracellular calcium assay in transiently transfected HEK293 cells, dose response (FIG. 3E); assay type: cell-based
T5 sequence (Q2ABE0 1-297): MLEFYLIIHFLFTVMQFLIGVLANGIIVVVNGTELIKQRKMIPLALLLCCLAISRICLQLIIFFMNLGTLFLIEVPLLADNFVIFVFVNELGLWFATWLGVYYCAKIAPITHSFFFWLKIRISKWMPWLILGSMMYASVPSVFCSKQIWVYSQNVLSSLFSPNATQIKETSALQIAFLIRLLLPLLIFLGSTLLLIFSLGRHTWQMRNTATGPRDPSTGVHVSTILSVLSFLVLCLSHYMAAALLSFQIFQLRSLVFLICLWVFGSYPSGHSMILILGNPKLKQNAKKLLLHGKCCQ
Excerpt: FIGS. 2A-2C show canine T2R sequence alignments. The dashed grey arrows indicate active site positions occupied by mostly asparagine or serine residues. The solid black arrows indicate structural tryptophan residues that are present in all human and cat bitter receptors as well as all canine bitter receptors except T2R12. The dashed black arrows indicate the conserved asparagine which is present in most of the bitter receptors. The conjoined solid arrows indicate the conserved LxxxR motif (IxxxR for some instances in T2R2), wherein x can be any amino acid. […] Asn89 can potentially make a hydrogen bond interaction with the ligand. Other residues that can potentially make hydrogen bonding interactions, pi interactions, or charged interactions with the ligand include Tyr239.
as §1

Chain of canine T2R43 (A0A8I3S925 1-349): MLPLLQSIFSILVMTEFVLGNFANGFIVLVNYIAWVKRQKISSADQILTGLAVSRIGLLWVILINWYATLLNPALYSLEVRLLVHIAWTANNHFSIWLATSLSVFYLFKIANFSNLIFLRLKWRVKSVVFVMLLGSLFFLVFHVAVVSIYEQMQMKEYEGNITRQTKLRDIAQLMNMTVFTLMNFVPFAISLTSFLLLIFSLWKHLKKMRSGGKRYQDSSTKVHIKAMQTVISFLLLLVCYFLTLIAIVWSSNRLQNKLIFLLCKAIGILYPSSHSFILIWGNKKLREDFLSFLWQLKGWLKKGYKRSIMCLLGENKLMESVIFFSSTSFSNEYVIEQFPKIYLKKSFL

CC1COc2c(N3CCN(C)CC3)c(F)cc3c(=O)c(C(=O)O)cn1c23 (stereo not drawn) [Ofloxacin]
EC50 (canine T2R2): 232 ± 14 µM

CCCc1cc(=O)[nH]c(=S)[nH]1 [Propylthiouracil]
EC50 (canine T2R43): 126 ± 23 µM

CC(=O)OC(C)(C)/C=C/C(=O)[C@](C)(O)[C@H]1[C@H](O)C[C@@]2(C)[C@@H]3CC=C4[C@@H](C[C@H](O)C(=O)C4(C)C)[C@]3(C)C(=O)C[C@]12C [Cucurbitacin B]
EC50 (canine T2R10): 0.3 ± 0.034 µM

c1cnc2c(c1)ccc1cccnc12 [1, 10 Phenanthroline, 1,10-phenanthroline]
EC50 (canine T2R5): 564 ± 114 µM

CCN(CC)CCCC(C)Nc1ccnc2cc(Cl)ccc12 (stereo not drawn) [Chloroquine]
EC50 (canine T2R3): 81 ± 11 µM

CC(C)[C@@H]1CC[C@@H](C)C[C@H]1O [Menthol]
EC50 (canine T2R1): 1080 ± 216 µM

— patent US12638438B2, “Screening methods using canine T2R receptors and pet food products and compositions identified using the same” (MARS, INCORPORATED, priority 2015, dated 2026)
